Results reported in patent US20090143279A1 (priority 2007, published 2009).
Read-outs that look alike come from different tables or passages of the source.

Tests used:
[1] = test system: reactive oxygen species; type: cell-based, mouse
[2] = test system: cytochrome c; type: cell-based, mouse
[3] = test system: C2C12 myotubes
[4] = test system: mitochondrial membrane potential; type: cell-based, mouse
[5] = test system: mtOXPHOS transcripts; type: cell-based, mouse
[6] = test system: cellular dehydrogenase activity
[7] = test system: OXPHOS gene expression; type: cell-based, mouse
[8] = test system: nuOXPHOS transcripts; type: cell-based, mouse
[9] = composite Z-score vs mock-treated (DMSO) wells, Conc 20 μM
[10] = Conc 20 μM, normalized score vs mock-treated (DMSO) wells
[11] = normalized composite Z-score vs mock-treated (DMSO) wells, Conc 20 μM
[12] = composite Z-score vs DMSO, Conc 4.42 μM
[13] = composite Z-score vs DMSO, Conc 20 μM

In the case of `CC(=O)O[C@H]1CC[C@]2(C)[C@H]3CC[C@@]4(C)[C@H](c5ccoc5)OC(=O)[C@H]5O[C@]54[C@]3(C)[C@H](OC(C)=O)C[C@H]2C1(C)C` [3beta-acetoxydeoxodihydrogedunin], the ROS [1, 9] is reported as 0.055, the cyt c [2, 9] is reported as 0.759 and the Viability [3, 9] is reported as 0.311. The ΔΨm [4, 9] was 0.254, the mitoOX [5, 9] was −0.694 and the MTT [6, 9] was −0.528. It also gave a GE-HTS [7, 9] of −1.016 and a nucOX [8, 9] of −1.055.

`CC(=O)O[C@@H]1CC2C(C)(CC[C@H](O)C2(C)C)C2CC[C@]3(C)C(=CC(=O)O[C@H]3c3ccoc3)C21C` (stereo partly drawn) [3beta-hydroxydeoxodihydrodeoxygedunin] was tested, and the “ROS (composite Z-score)” value [1, 10] was 1.488, the “cyt c (composite Z-score)” value [2, 10] was 0.142 and the “Viability (composite Z-score)” value [3, 10] was −1.397. For the same compound, the “ΔΨm (composite Z-score)” value [4, 10] was 1.048, the “mitoOX (composite Z-score)” value [5, 10] was −0.359 and the “MTT (composite Z-score)” value [6, 10] was −0.656. For the same compound, the “GE-HTS (composite Z-score)” value [7, 10] was −0.747 and the “nucOX (composite Z-score)” value [8, 10] was −0.849.

In the case of `CC(=O)OC1CC2C(C)(C)[C@@H](O)CC[C@]2(C)C2CC[C@]3(C)[C@H](c4ccoc4)OC(=O)[C@H]4O[C@]43[C@]12C` (stereo partly drawn) [3beta-hydroxydeoxodihydrogedunin], the ROS [1, 9] is reported as 0.170, the cyt c [2, 9] is reported as 0.591 and the Viability [3, 9] is reported as −0.364. For the same compound, the ΔΨm [4, 9] was 0.674, the mitoOX [5, 9] was −0.302 and the MTT [6, 9] was −0.540. The GE-HTS [7, 9] was −0.585 and the nucOX [8, 9] was −0.648.

`C=CC(C1=CC(=O)C(OC)=CC1=O)c1ccc(OC)cc1` (centres unmarked) [4,4′-dimethoxydalbergione] was tested, and the ROS [1, 9] was −0.802, the cyt c [2, 9] was −1.432 and the Viability [3, 9] was −0.207. It also gave a ΔΨm [4, 9] of −0.993, a mitoOX [5, 9] of −0.975 and an MTT [6, 9] of −2.648. For the same compound, the GE-HTS [7, 9] was −0.842 and the nucOX [8, 9] was −0.677.

`COc1ccc(-c2cc(=O)c3ccc(OC)cc3o2)cc1` [4,7-dimethoxyflavone] showed an ROS [1, 11] of 1.067, a cyt c [2, 11] of 0.031 and a Viability [3, 11] of −0.067. The ΔΨm [4, 11] was −0.795, the mitoOX [5, 11] was 0.539 and the MTT [6, 11] was −0.472. For the same compound, the GE-HTS [7, 11] was 1.306 and the nucOX [8, 11] was 1.526.

With `Cc1c(N)c(=O)n(-c2ccccc2)n1C` [4-aminoantipyrine] the ROS [1, 12] was 0.564, the cyt c [2, 12] was 0.087 and the Viability [3, 12] was 0.530. It also gave a ΔΨm [4, 12] of −4.045, a mitoOX [5, 12] of −0.450 and an MTT [6, 12] of −1.470. For the same compound, the GE-HTS [7, 12] was −0.182 and the nucOX [8, 12] was −0.041.

`NCCc1ccc(S(=O)(=O)F)cc1` [4-aminoethylbenzenesulfonyl fluoride] was tested, and the ROS [1, 13] was 1.081, the cyt c [2, 13] was −0.485 and the Viability [3, 13] was −0.304. For the same compound, the ΔΨm [4, 13] was −0.356, the mitoOX [5, 13] was 0.018 and the MTT [6, 13] was −1.406. The GE-HTS [7, 13] was −0.016 and the nucOX [8, 13] was −0.045.

For `C=CC(C1=CC(=O)C(OC)=CC1=O)c1ccc(O)cc1` (centres unmarked) [4-methoxy-4′-hydroxy-dalbergione], the ROS [1, 9] was 0.639, the cyt c [2, 9] was 0.803 and the Viability [3, 9] was 1.548. It also gave a ΔΨm [4, 9] of 0.406, a mitoOX [5, 9] of −1.071 and an MTT [6, 9] of −0.877. The GE-HTS [7, 9] was −1.401 and the nucOX [8, 9] was −1.406.

Compound `COc1ccccc1-c1cc(=O)c2c(OC)cccc2o1` [5,2′-dimethoxyflavone] has an ROS [1, 11] of 0.645, a cyt c [2, 11] of 1.046 and a Viability [3, 11] of −0.228. For the same compound, the ΔΨm [4, 11] was 1.002, the mitoOX [5, 11] was −0.607 and the MTT [6, 11] was −0.219. The GE-HTS [7, 11] was −0.862 and the nucOX [8, 11] was −0.881.

`C=C1CCC2C(CC2(C)C)C(=C)CCC1=NO` (centres unmarked) [5-hydroxyiminoisocaryophyllene] was tested, and the ROS [1, 9] was 0.922, the cyt c [2, 9] was 0.117 and the Viability [3, 9] was 0.181. For the same compound, the ΔΨm [4, 9] was 0.413, the mitoOX [5, 9] was 0.421 and the MTT [6, 9] was 1.325. It also gave a GE-HTS [7, 9] of −0.023 and a nucOX [8, 9] of −0.273.

With `O=C(O)c1cc([N+](=O)[O-])ccc1NCCCc1ccccc1` [5-nitro-2-phenylpropylaminobenzoic acid] the “ROS (composite Z-score vs DMSO)” value [1] was 0.872, the “cyt c (composite Z-score vs DMSO)” value [2] was 0.412 and the “Viability (composite Z-score vs DMSO)” value [3] was −0.939. The “ΔΨm (composite Z-score vs DMSO)” value [4] was −0.937, the “mitoOX (composite Z-score vs DMSO)” value [5] was −0.075 and the “MTT (composite Z-score vs DMSO)” value [6] was −0.786. For the same compound, the “GE-HTS (composite Z-score vs DMSO)” value [7] was 0.038 and the “nucOX (composite Z-score vs DMSO)” value [8] was 0.089.

`C[C@]12CC[C@H](O)C[C@@H]1CC[C@@H]1[C@@H]2CC[C@]2(C)[C@@H](O)CC[C@@H]12` [5alpha-androstan-3beta,17beta-diol] gave an ROS [1, 13] of 0.607, a cyt c [2, 13] of 0.280 and a Viability [3, 13] of −0.204. For the same compound, the ΔΨm [4, 13] was −1.116, the mitoOX [5, 13] was 0.270 and the MTT [6, 13] was −0.454. The GE-HTS [7, 13] was 0.123 and the nucOX [8, 13] was 0.059.

Compound `CC(C)CCC[C@@H](C)[C@H]1CC[C@H]2[C@@H]3CC(=O)[C@H]4C[C@@H](O)CC[C@]4(C)[C@H]3CC[C@]12C` [5alpha-cholestan-3beta-ol-6-one] has an ROS [1, 13] of 0.397, a cyt c [2, 13] of 1.006 and a Viability [3, 13] of −0.430. The ΔΨm [4, 13] was 0.479, the mitoOX [5, 13] was −0.862 and the MTT [6, 13] was 0.811. For the same compound, the GE-HTS [7, 13] was −0.731 and the nucOX [8, 13] was −0.603.
